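These data come from cells grown in 96-well plates and exposed to compound for 48 hours at five concentrations. GI50 is the concentration that inhibits growth by half. At the TGI there is no net growth.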
Experiments:
Assay in all cases: NCI anticancer screen, dose series, 48 h; in the data active = GI50 below about 0.43 µM; inactive = the rest
PC-3 prostate = test system: PC-3 prostate
SW-620 colon = test system: SW-620 colon
UACC-257 melanoma = test system: UACC-257 melanoma
HCC-2998 colon = test system: HCC-2998 colon
COLO 205 colon = test system: COLO 205 colon
MDA-MB-231 breast = test system: MDA-MB-231 breast
LOX IMVI melanoma = test system: LOX IMVI melanoma
M14 melanoma = test system: M14 melanoma
UACC-62 melanoma = test system: UACC-62 melanoma
OVCAR-5 ovarian = test system: OVCAR-5 ovarian
T-47D breast = test system: T-47D breast
HL-60(TB) leukemia = test system: HL-60(TB) leukemia
UO-31 renal = test system: UO-31 renal
TK-10 renal = test system: TK-10 renal
HS 578T breast = test system: HS 578T breast
IGROV1 ovarian = test system: IGROV1 ovarian
HT29 colon = test system: HT29 colon
HOP-62 NSCLC = test system: HOP-62 NSCLC
OVCAR-8 ovarian = test system: OVCAR-8 ovarian
NCI-H522 lung = test system: NCI-H522 lung
KM12 colon = test system: KM12 colon
CCRF-CEM leukemia = test system: CCRF-CEM leukemia
NCI/ADR-RES ovarian = test system: NCI/ADR-RES ovarian
SK-MEL-28 melanoma = test system: SK-MEL-28 melanoma
NCI-H23 lung = test system: NCI-H23 lung
SK-MEL-2 melanoma = test system: SK-MEL-2 melanoma
SN12C renal = test system: SN12C renal
A549 NSCLC = test system: A549 NSCLC
NCI-H460 lung = test system: NCI-H460 lung
HCT-116 colon = test system: HCT-116 colon
BT-549 breast = test system: BT-549 breast
NCI-H226 lung = test system: NCI-H226 lung
HCT-15 colon = test system: HCT-15 colon
MCF7 breast = test system: MCF7 breast
SF-295 CNS = test system: SF-295 CNS
RPMI-8226 leukemia = test system: RPMI-8226 leukemia
SNB-19 CNS = test system: SNB-19 CNS
MOLT-4 leukemia = test system: MOLT-4 leukemia
ACHN renal = test system: ACHN renal
786-0 renal = test system: 786-0 renal
U251 CNS = test system: U251 CNS
K-562 leukemia = test system: K-562 leukemia
RXF 393 renal = test system: RXF 393 renal
MDA-MB-435 = test system: MDA-MB-435
SK-MEL-5 melanoma = test system: SK-MEL-5 melanoma
EKVX NSCLC = test system: EKVX NSCLC
SF-268 CNS = test system: SF-268 CNS
CAKI-1 renal = test system: CAKI-1 renal
HOP-92 NSCLC = test system: HOP-92 NSCLC
OVCAR-3 ovarian = test system: OVCAR-3 ovarian
A498 renal = test system: A498 renal
DU-145 prostate = test system: DU-145 prostate
SNB-75 CNS = test system: SNB-75 CNS
SK-OV-3 ovarian = test system: SK-OV-3 ovarian
MALME-3M melanoma = test system: MALME-3M melanoma
SF-539 CNS = test system: SF-539 CNS
OVCAR-4 ovarian = test system: OVCAR-4 ovarian

COC(=O)C1=C(O)C(C(=O)OC)[C@@]2(O)[C@@H](C(=O)OC)C(c3ccc(OC(=O)C(CC(C)C)NC(C)=O)cc3)C[C@@H]1[C@@H]2C(=O)OC (some centres not stated)
63.8 µM: TGI (UACC-62 melanoma)
88.1 µM: TGI (M14 melanoma)
97.2 µM: TGI (MOLT-4 leukemia)
76.4 µM: TGI (U251 CNS)
> 100 µM: TGI (PC-3 prostate) | TGI (SW-620 colon) | TGI (UACC-257 melanoma) | TGI (COLO 205 colon) | TGI (MDA-MB-231 breast) | TGI (OVCAR-5 ovarian) | TGI (T-47D breast) | TGI (HL-60(TB) leukemia) | TGI (UO-31 renal) | TGI (TK-10 renal) | TGI (HS 578T breast) | TGI (IGROV1 ovarian) | TGI (HT29 colon) | TGI (HOP-62 NSCLC) | TGI (OVCAR-8 ovarian) | TGI (NCI-H522 lung) | TGI (KM12 colon) | TGI (CCRF-CEM leukemia) | TGI (NCI/ADR-RES ovarian) | TGI (SK-MEL-28 melanoma) | TGI (NCI-H23 lung) | TGI (SK-MEL-2 melanoma) | TGI (SN12C renal) | TGI (A549 NSCLC) | TGI (NCI-H460 lung) | TGI (HCT-116 colon) | TGI (BT-549 breast) | TGI (NCI-H226 lung) | TGI (HCT-15 colon) | TGI (MCF7 breast) | TGI (SF-295 CNS) | TGI (RPMI-8226 leukemia) | TGI (SNB-19 CNS) | TGI (ACHN renal) | TGI (786-0 renal) | TGI (K-562 leukemia) | TGI (RXF 393 renal) | TGI (MDA-MB-435) | TGI (SK-MEL-5 melanoma) | TGI (EKVX NSCLC) | TGI (SF-268 CNS) | TGI (CAKI-1 renal) | TGI (HOP-92 NSCLC) | TGI (OVCAR-3 ovarian)
52 µM: TGI (HCC-2998 colon)
45 µM: TGI (LOX IMVI melanoma)
inactive: GI50 (PC-3 prostate) 33.9 µM | GI50 (SW-620 colon) 55.5 µM | GI50 (UACC-257 melanoma) > 100 µM | GI50 (HCC-2998 colon) 19 µM | GI50 (COLO 205 colon) 46.6 µM | GI50 (MDA-MB-231 breast) 30 µM | GI50 (LOX IMVI melanoma) 20.6 µM | GI50 (M14 melanoma) 27.5 µM | GI50 (UACC-62 melanoma) 23.2 µM | GI50 (OVCAR-5 ovarian) 32.2 µM | GI50 (T-47D breast) 37.8 µM | GI50 (HL-60(TB) leukemia) 43.9 µM | GI50 (UO-31 renal) > 100 µM | GI50 (TK-10 renal) 57.4 µM | GI50 (HS 578T breast) 58.3 µM | GI50 (IGROV1 ovarian) > 100 µM | GI50 (HT29 colon) 62.2 µM | GI50 (HOP-62 NSCLC) 31.2 µM | GI50 (OVCAR-8 ovarian) 43.7 µM | GI50 (NCI-H522 lung) 60.9 µM | GI50 (KM12 colon) 28.2 µM | GI50 (CCRF-CEM leukemia) 41.4 µM | GI50 (NCI/ADR-RES ovarian) 39 µM | GI50 (SK-MEL-28 melanoma) > 100 µM | GI50 (NCI-H23 lung) 36.9 µM | GI50 (SK-MEL-2 melanoma) 81.9 µM | GI50 (SN12C renal) 30.2 µM | GI50 (A549 NSCLC) 38.3 µM | GI50 (NCI-H460 lung) 41.6 µM | GI50 (HCT-116 colon) 29.3 µM | GI50 (BT-549 breast) 33.6 µM | GI50 (NCI-H226 lung) 43 µM | GI50 (HCT-15 colon) 31.9 µM | GI50 (MCF7 breast) 48.8 µM | GI50 (SF-295 CNS) 74.8 µM | GI50 (RPMI-8226 leukemia) > 100 µM | GI50 (SNB-19 CNS) 37.1 µM | GI50 (MOLT-4 leukemia) 48.3 µM | GI50 (ACHN renal) 41.9 µM | GI50 (786-0 renal) 46.2 µM | GI50 (U251 CNS) 26.5 µM | GI50 (K-562 leukemia) 95 µM | GI50 (RXF 393 renal) > 100 µM | GI50 (MDA-MB-435) > 100 µM | GI50 (SK-MEL-5 melanoma) 18.5 µM | GI50 (EKVX NSCLC) 39.7 µM | GI50 (SF-268 CNS) 35.7 µM | GI50 (CAKI-1 renal) > 100 µM | GI50 (HOP-92 NSCLC) 39.5 µM | GI50 (OVCAR-3 ovarian) > 100 µM

COc1cc(/C=C\c2cccnc2Nc2ccccc2)cc(OC)c1OC
65.7 µM: TGI (UACC-257 melanoma)
72.8 µM: TGI (UO-31 renal)
16.4 µM: TGI (SK-MEL-5 melanoma)
34.8 µM: TGI (RPMI-8226 leukemia)
87.4 µM: TGI (MALME-3M melanoma)
9.17 µM: TGI (HOP-92 NSCLC)
98.3 µM: TGI (HT29 colon)
33.2 µM: TGI (NCI-H226 lung)
44.7 µM: TGI (MCF7 breast)
24.6 µM: TGI (LOX IMVI melanoma)
78.1 µM: TGI (ACHN renal)
16.2 µM: TGI (COLO 205 colon)
36.7 µM: TGI (HL-60(TB) leukemia)
47.6 µM: TGI (T-47D breast)
28.8 µM: TGI (SK-MEL-2 melanoma)
65.3 µM: TGI (BT-549 breast)
46.2 µM: TGI (MOLT-4 leukemia)
80.7 µM: TGI (TK-10 renal)
43.3 µM: TGI (MDA-MB-435)
44.1 µM: TGI (786-0 renal)
40.7 µM: TGI (NCI-H522 lung)
25.4 µM: TGI (UACC-62 melanoma)
57.5 µM: TGI (SNB-75 CNS)
63.2 µM: TGI (NCI/ADR-RES ovarian)
61.1 µM: TGI (CAKI-1 renal)
35.9 µM: TGI (SF-295 CNS)
26.7 µM: TGI (NCI-H460 lung)
inactive: GI50 (PC-3 prostate) 7.81 µM | GI50 (SW-620 colon) 4.81 µM | GI50 (UACC-257 melanoma) 8.52 µM | GI50 (HCC-2998 colon) 7.74 µM | GI50 (A498 renal) 2.64 µM | GI50 (COLO 205 colon) 4.44 µM | GI50 (MDA-MB-231 breast) 12.6 µM | GI50 (LOX IMVI melanoma) 4.51 µM | GI50 (M14 melanoma) 8.99 µM | GI50 (UACC-62 melanoma) 4.96 µM | GI50 (OVCAR-5 ovarian) 16.3 µM | GI50 (T-47D breast) 5.3 µM | GI50 (HL-60(TB) leukemia) 8 µM | GI50 (UO-31 renal) 5.09 µM | GI50 (TK-10 renal) 15.5 µM | GI50 (HS 578T breast) 13.2 µM | GI50 (DU-145 prostate) 6.22 µM | GI50 (IGROV1 ovarian) 12.6 µM | GI50 (HT29 colon) 5.51 µM | GI50 (HOP-62 NSCLC) 12.1 µM | GI50 (SNB-75 CNS) 4.12 µM | GI50 (OVCAR-8 ovarian) 6.7 µM | GI50 (NCI-H522 lung) 7.44 µM | GI50 (KM12 colon) 6.5 µM | GI50 (CCRF-CEM leukemia) 7.08 µM | GI50 (NCI/ADR-RES ovarian) 4.44 µM | GI50 (SK-MEL-28 melanoma) 5.43 µM | GI50 (NCI-H23 lung) 10.2 µM | GI50 (SK-MEL-2 melanoma) 8 µM | GI50 (SN12C renal) 5.1 µM | GI50 (A549 NSCLC) 4.21 µM | GI50 (NCI-H460 lung) 3.61 µM | GI50 (HCT-116 colon) 3.77 µM | GI50 (BT-549 breast) 14.3 µM | GI50 (NCI-H226 lung) 10.8 µM | GI50 (HCT-15 colon) 5.02 µM | GI50 (MCF7 breast) 3.97 µM | GI50 (SF-295 CNS) 4.92 µM | GI50 (SK-OV-3 ovarian) 11.1 µM | GI50 (RPMI-8226 leukemia) 6.83 µM | GI50 (SNB-19 CNS) 6.8 µM | GI50 (MOLT-4 leukemia) 6.72 µM | GI50 (MALME-3M melanoma) 15.3 µM | GI50 (ACHN renal) 5.33 µM | GI50 (786-0 renal) 5.98 µM | GI50 (U251 CNS) 4.1 µM | GI50 (RXF 393 renal) 5.22 µM | GI50 (SF-539 CNS) 12.2 µM | GI50 (MDA-MB-435) 5.63 µM | GI50 (OVCAR-4 ovarian) 9.78 µM | GI50 (SK-MEL-5 melanoma) 4.17 µM | GI50 (EKVX NSCLC) 7.55 µM | GI50 (SF-268 CNS) 8.19 µM | GI50 (CAKI-1 renal) 4.01 µM | GI50 (HOP-92 NSCLC) 0.947 µM | GI50 (OVCAR-3 ovarian) 7.45 µM
28.7 µM: TGI (OVCAR-3 ovarian)
41 µM: TGI (SK-MEL-28 melanoma)
38.1 µM: TGI (M14 melanoma)
75.1 µM: TGI (PC-3 prostate)
15.6 µM: TGI (HCT-116 colon)
64.8 µM: TGI (RXF 393 renal)
> 100 µM: TGI (SW-620 colon) | TGI (HCC-2998 colon) | TGI (MDA-MB-231 breast) | TGI (OVCAR-5 ovarian) | TGI (HS 578T breast) | TGI (DU-145 prostate) | TGI (IGROV1 ovarian) | TGI (HOP-62 NSCLC) | TGI (OVCAR-8 ovarian) | TGI (KM12 colon) | TGI (CCRF-CEM leukemia) | TGI (NCI-H23 lung) | TGI (SN12C renal) | TGI (A549 NSCLC) | TGI (HCT-15 colon) | TGI (SK-OV-3 ovarian) | TGI (SNB-19 CNS) | TGI (U251 CNS) | TGI (SF-539 CNS) | TGI (OVCAR-4 ovarian) | TGI (EKVX NSCLC) | TGI (SF-268 CNS)
36.5 µM: TGI (A498 renal)
